Assay results reported in patent publication US20100261693A1, “METHOD FOR TREATING CUSHING'S SYNDROME” (priority 2007, published 2010).

Legend:
[1] = system: Cushing's syndrome secondary to ectopic ACTH secretion; assay: Case-study: mifepristone in a patient with Cushing's syndrome secondary to ectopic ACTH secretion; format: in vivo, human; conditions: person
Excerpt: A subject, first presented with clinical symptoms of Cushing's syndrome in August 2006, and they were diagnosed with Cushing's syndrome secondary to ectopic ACTH secretion in March 2007.

[2] = system: Cushing's syndrome (ectopic ACTH secretion); conditions: cited from earlier work
[3] = 200 mg three times a day, after 2 weeks of treatment

CC#C[C@]1(O)CC[C@H]2[C@@H]3CCC4=CC(=O)CCC4=C3[C@@H](c3ccc(N(C)C)cc3)C[C@@]21C [mifepristone]
concomitant insulin treatment [1, 3]: insulin was stopped
dose of concomitant metformin [1, 3]: decreased by two
general clinical consequences of hypercortisolism [1, 3]: rapidly improved
glycemia [1, 3]: returned to normal
dose of enalapril previously administered for hypertension ([1]; mifepristone 200 mg three times a day): decreased from 30 mg to 10 mg
outcome of fractioned dosage ([2]; fractioned dosage, young child): successfully given
efficacy in clinical trials ([2]; high-dose mifepristone once a day): some efficacy
